“And” between values parts separate entries of the source, which are not always exact repeats. Identical values can stand only once. Like-named read-outs stand apart in the source and are kept apart here.
What was measured:
[1] = molecular target: p34 cdc2(CDK1)/cyclinB; test: CDK assay: histone H1 phosphorylation with [32P]ATP by cdc2/cyclinB kinase; assay type: biochemical, starfish (Marthasterias glacialis); conditions: read-out: IC50 ± SD CDK1
Procedure: Assays are available for testing the inhibitory activity of the compounds of interest against a range of CDK/cyclin complexes, including CDK1/cyclin A, CDK1/cyclin B, CDK1/cyclin F, CDK2/cyclin A, CDK2/cyclin E, CDK4/cyclin D, CDK5/35 and CDK6/cyclin D3. […]
(§1) By way of example, however, a typical protocol is summarised below.
Buffer C (containing 6 mM β-glycerophosphate, 30 mM nitrophenyl phosphate, 25 mM MOPS pH 7.0, 5 mM EGTA, 15 mM MgCl2, […] and 0.1 mM sodium orthovanadate) is made up as follows:
Affinity purified p34 cdc2(CDK1)/cyclinB from M-phase starfish (Marthasterias glacialis) in 20% glycerol is stored at −80° C. in chest freezer
Histone H1 (type III-S (Sigma) 4° C.) 5 mg/ml in buffer C.
[^32P]ATP 75 mM: Make up using (multiples of) the following proportions:
DMSO cannot exceed 1% in the assay mixture. Inhibitors are added at 1/10 final assay volume and 10× final strength. DMSO stocks must therefore be diluted to 10× final desired concentration in ≦10% DMSO, ≧90% buffer C.
All reagents (except DMSO stocks) should be kept on ice until assay initiated.
Start reaction in each tube at 30 second intervals b)y adding
5 ml [^32P]ATP vortexing and placing in rack in waterbath at 30° C.
Terminate reaction after 10 min at 30 second intervals in tubes in same order by removing […] reaction mix and spotting onto appropriately labelled filter, allowing to dry for 20-30 seconds and transferring to stirring 1% phosphoric acid.
Blank incubation is performed as above but without histone (add […] buffer C instead) Washing blank is […] ATP added directly to filter.
Wash filters 5-6 times 5 min each
Dry the filters on paper towel
Count in mini scintillation vials with 5 ml scintillant.
NB. The assay can be simplified by making up stock reaction mix as follows:
(1 part cdc2/cyclinB, 16 parts buffer C, 5 parts histone H1)×Number of assay tubes+1 and add […] to each assay tube containing […] buffer C±inhibitor.
It is still necessary, however, to make up assay blank (i.e. without histone) separately.

[2] = disclosed in WO 99/02162; cited from earlier work
[3] = system: CDK1(cdc2)/cyclin B complexes; conditions: disclosed in WO 99/02162; cited from earlier work
[4] = molecular target: CDK2 (Homo sapiens, UniProt P24941); test: Inhibition of CDK2 (CDK inhibition assay); assay type: biochemical; conditions: read-out: IC50 ± SD CDK2
Description: Assays are available for testing the inhibitory activity of the compounds of interest against a range of CDK/cyclin complexes, including CDK1/cyclin A, CDK1/cyclin B, CDK1/cyclin F, CDK2/cyclin A, CDK2/cyclin E, CDK4/cyclin D, CDK5/35 and CDK6/cyclin D3.
Apart from reference compounds, the compounds listed are accompanied by an NU reference or identification code number.
as §1

[5] = molecular target: CDK4 (Homo sapiens, UniProt P11802); conditions: cited from earlier work
[6] = molecular target: CDK6 (Homo sapiens, UniProt Q00534); conditions: cited from earlier work
[7] = system: many common kinases other than CDK's; conditions: cited from earlier work

Chain of CDK6 (Q00534 whole entry, species assumed): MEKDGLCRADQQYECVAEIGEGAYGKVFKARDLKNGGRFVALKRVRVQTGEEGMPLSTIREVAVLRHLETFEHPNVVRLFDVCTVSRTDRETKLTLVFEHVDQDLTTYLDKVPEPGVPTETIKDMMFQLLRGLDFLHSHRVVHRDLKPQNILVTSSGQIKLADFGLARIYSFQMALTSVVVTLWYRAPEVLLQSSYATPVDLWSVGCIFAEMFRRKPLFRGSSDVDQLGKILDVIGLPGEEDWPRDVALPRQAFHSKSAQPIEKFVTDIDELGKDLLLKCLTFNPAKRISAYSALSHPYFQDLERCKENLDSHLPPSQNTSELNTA
Chain of CDK6 (P30281 whole entry partner, species assumed): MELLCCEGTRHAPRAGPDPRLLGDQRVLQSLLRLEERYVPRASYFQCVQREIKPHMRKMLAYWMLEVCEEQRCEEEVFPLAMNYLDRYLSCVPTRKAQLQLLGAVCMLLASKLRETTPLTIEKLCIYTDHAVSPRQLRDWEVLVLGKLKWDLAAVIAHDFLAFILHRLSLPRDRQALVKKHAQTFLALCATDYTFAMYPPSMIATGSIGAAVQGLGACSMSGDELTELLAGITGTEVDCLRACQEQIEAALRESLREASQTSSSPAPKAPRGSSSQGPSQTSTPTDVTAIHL
Chain of CDK4 (P11802 whole entry, species assumed): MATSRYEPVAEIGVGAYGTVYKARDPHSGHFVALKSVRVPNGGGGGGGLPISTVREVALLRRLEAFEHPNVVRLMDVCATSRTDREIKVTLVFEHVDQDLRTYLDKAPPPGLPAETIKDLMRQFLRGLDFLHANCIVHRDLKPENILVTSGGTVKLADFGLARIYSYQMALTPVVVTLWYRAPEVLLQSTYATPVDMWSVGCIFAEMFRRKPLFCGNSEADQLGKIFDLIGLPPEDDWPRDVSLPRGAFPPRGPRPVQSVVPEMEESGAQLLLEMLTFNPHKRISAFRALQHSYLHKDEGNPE
Chain of CDK4 (P24385 whole entry partner, species assumed): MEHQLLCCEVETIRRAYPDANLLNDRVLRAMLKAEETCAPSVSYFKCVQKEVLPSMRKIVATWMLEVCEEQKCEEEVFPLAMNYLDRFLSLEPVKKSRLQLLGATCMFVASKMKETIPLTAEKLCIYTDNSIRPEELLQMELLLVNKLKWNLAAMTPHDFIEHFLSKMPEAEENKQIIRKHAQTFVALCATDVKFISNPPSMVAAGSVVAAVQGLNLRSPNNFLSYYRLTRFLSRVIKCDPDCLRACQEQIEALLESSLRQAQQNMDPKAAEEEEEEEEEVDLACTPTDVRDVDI

Structure (SMILES)	IC50 ([1]; values in nM)	IC50 ([4]; values in nM) [µM]	further results
Nc1nc(OCC2CCCCC2)c2nc[nH]c2n1 [NU2058, 2-Amino-O^6-cyclohexylmethylpurine]	–	–	IC50 ([1]; values given in μM): 7 ± 0.7 µM; cytotoxicity [2]: cytotoxic; inhibitory activity against CDK1(cdc2)/cyclin B complexes [3]: very high inhibitory activity, comparable to that of olomoucine
O=S(=O)(NCc1ccccc1)c1ccc(Nc2nc(OCC3CCCCC3)c3nc[nH]c3n2)cc1 [NU6123, N-Benzyl-4-(cyclohexylmethoxypurine-2-ylamino)-benzenesulfonamide]	–	–	IC50 ([1]; values given in μM): 0.7 ± 0.3 µM; IC50 ([4]; values given in μM): 0.2 ± 0.1 µM
NS(=O)(=O)c1ccc(CNc2nc(OCC3CCCCC3)c3nc[nH]c3n2)cc1 [NU6124, 4-[(6-Cyclohexylmethoxypurine-2-ylamino)methyl]benzenesulfonamide]	–	–	IC50 ([1]; values given in μM): 17 ± 0.3 µM; IC50 ([4]; values given in μM): 15 µM and 13 µM
CC(=O)c1ccc(Nc2nc(OCC3CCCCC3)c3nc[nH]c3n2)cc1 [NU6125]	–	–	IC50 ([1]; values given in μM): 0.5 ± 0.2 µM; IC50 ([4]; values given in μM): 0.3 ± 0.04 µM
CCNS(=O)(=O)c1ccc(Nc2nc(OCC3CCCCC3)c3nc[nH]c3n2)cc1 [NU6129, 4-(6Cyclohexylmethoxy-2-ylamino)-N-ethylbenzenesulfonamide]	0.007 µM and 0.009 µM	0.008 ± 0.002	–
CC(C)CNS(=O)(=O)c1ccc(Nc2nc(OCC3CCCCC3)c3nc[nH]c3n2)cc1 [NU6130, 4-(6Cyclohexylmethoxy-2-ylamino)-N-isobutylbenzenesulfonamide]	0.071 ± 0.009 µM	0.069 ± 0.013	–
O=S(=O)(NC1CC1)c1ccc(Nc2nc(OCC3CCCCC3)c3nc[nH]c3n2)cc1 [NU6131, 4-(6-Cyclohexylmethoxy-9H-purin-2-ylamino)-N-cyclopropylbenzenesulfonamide]	0.013 ± 0.005 µM	0.008 ± 0.0003	–
CCCNS(=O)(=O)c1ccc(Nc2nc(OCC3CCCCC3)c3nc[nH]c3n2)cc1 [NU6133, 4-(6-Cyclohexylmethoxy-9H-purin-2-ylamino)-N-propylbenzenesulfonamide]	0.034 ± 0.004 µM	0.017 ± 0.013	–
O=S(=O)(NCC1CCCO1)c1ccc(Nc2nc(OCC3CCCCC3)c3nc[nH]c3n2)cc1 (stereo not drawn) [NU6134, 4-(6-Cyclohexylmethoxy-9H-purin-2-ylamino)-N-(tetrahydrofuran-2-ylmethyl)benzenesulfonamide]	0.0072 µM and 0.0073 µM	0.007 ± 0.0032	–
COCCNS(=O)(=O)c1ccc(Nc2nc(OCC3CCCCC3)c3nc[nH]c3n2)cc1 [NU6135, 4-(6-Cyclohexylmethoxy-9H-purin-2-ylamino)-N-(2-methoxyethyl)benzenesulfonamide]	0.018 ± 0.004 µM	0.006 ± 0.0015	–
CN(C)C(=O)c1ccc(Nc2nc(OCC3CCCCC3)c3nc[nH]c3n2)cc1 [NU6136, 4-(6-Cyclohexylmethoxy-9H-purin-2-ylamino)-N,N-dimethylbenzamide]	–	–	IC50 ([1]; values given in μM): 0.6 µM; IC50 ([4]; values given in μM): 0.2 µM
CNC(=O)c1ccc(Nc2nc(OCC3CCCCC3)c3nc[nH]c3n2)cc1 [NU6139, 4-(6-Cyclohexylmethoxy-9H-purin-2-ylamino)-N-methylbenzamide]	–	–	IC50 ([1]; values given in μM): 0.7 µM; IC50 ([4]; values given in μM): 0.3 µM
CCCNC(=O)c1ccc(Nc2nc(OCC3CCCCC3)c3nc[nH]c3n2)cc1 [NU6142, 4-(6-Cyclohexylmethoxy-9H-purin-2-ylamino)-N-propylbenzamide]	–	~0.1	IC50 ([1]; values given in μM): 0.42 µM
CCNC(=O)c1ccc(Nc2nc(OCC3CCCCC3)c3nc[nH]c3n2)cc1 [NU6143, 4-(6-Cyclohexylmethoxy-9H-purin-2-ylamino)-N-ethylbenzamide]	> 0.1 µM	> 0.1	–
O=S(=O)(NCCO)c1ccc(Nc2nc(OCC3CCCCC3)c3nc[nH]c3n2)cc1 [NU6144, 4-(6-Cyclohexylmethoxy-9H-purin-2-ylamino)-N-(2-hydroxyethyl)benzenesulfonamide]	0.008 ± 0.0002 µM	0.004 ± 0.0015	–
O=S(=O)(Nc1nccs1)c1ccc(Nc2nc(OCC3CCCCC3)c3nc[nH]c3n2)cc1 [NU6145, 4-(6-Cyclohexylmethoxy-9H-purin-2-ylamino)-N-thiazol-2-ylbenzenesulfonamide]	0.037 µM	0.024	–
CC(O)CNS(=O)(=O)c1ccc(Nc2nc(OCC3CCCCC3)c3nc[nH]c3n2)cc1 (stereo not drawn) [NU6146, 4-(6-Cyclohexylmethoxy-9H-purin-2-ylamino)-N-(2-hydroxypropyl)benzenesulfonamide]	0.014 ± 0.007 µM	0.005 ± 0.001	–
O=S(=O)(Nc1ccccc1)c1ccc(Nc2nc(OCC3CCCCC3)c3nc[nH]c3n2)cc1 [NU6152, 4-(6-Cyclohexylmethoxy-9H-purin-2-ylamino)-N-phenyl-benzenesulfonamide]	–	–	IC50 ([1]; values given in μM): 0.4 ± 0.1 µM; IC50 ([4]; values given in μM): 0.2 ± 0.02 µM
O=S(=O)(NCC(O)CO)c1ccc(Nc2nc(OCC3CCCCC3)c3nc[nH]c3n2)cc1 (stereo not drawn) [NU6153, 4-(6-Cyclohexylmethoxy-9H-purin-2-ylamino)-N-(2,3-dihydroxypropyl)benzenesulfonamide]	0.007 ± 0.001 µM	0.005 ± 0.002	–
O=S(=O)(Nc1ccccn1)c1ccc(Nc2nc(OCC3CCCCC3)c3nc[nH]c3n2)cc1 [NU6154, 4-(6-Cyclohexylmethoxy-9H-purin-2-ylamino)-(N-pyridin-2-yl)benzenesulfonamide]	0.02 ± 0.006 µM	0.027 ± 0.002	–
CC1CCCCC1COc1nc(Nc2ccc(S(N)(=O)=O)cc2)nc2[nH]cnc12 (stereo not drawn) [NU6158, 4-[6-(2-Methyl-cyclohexylmethoxy)-9H-purin-2-ylamino]benzenesulfonamide]	0.006 ± 0.001 µM	0.004 ± 0.0003	–
Cc1cc(NS(=O)(=O)c2ccc(Nc3nc(OCC4CCCCC4)c4nc[nH]c4n3)cc2)nc(C)n1 [NU6160, 4-(6-Cyclohexylmethoxy-9H-purin-2-ylamino)-N-(2,6dimethylpyrimidin-4-yl)-benzenesulfonamide]	0.028 ± 0.002 µM	0.033 ± 0.006	–
NS(=O)(=O)c1ccc(Nc2nc(OCC3CC=CCC3)c3nc[nH]c3n2)cc1 (stereo not drawn) [NU6162, 4-[6-(Cyclohex-3-enylmethoxy)-9H-purin-2ylamino]-benzenesulfonamide]	0.021 ± 0.004 µM	0.01 ± 0.001	–
O=S(=O)(NCC(F)(F)F)c1ccc(Nc2nc(OCC3CCCCC3)c3nc[nH]c3n2)cc1 [NU6163, 4-(6-Cyclohexylmethoxy-9H-purin-2-ylamino)-N-(2,2,2-trifluoroethyl)-benzenesulfonamide]	0.066 ± 0.005 µM	0.051 ± 0.016	–
NC(=O)Cc1ccc(Nc2nc(OCC3CCCCC3)c3nc[nH]c3n2)cc1 [NU6164, 2-[4-(6-Cyclohexylmethoxy-9H-purin-2-ylamino)-phenyl]acetamide]	0.136 ± 0.022 µM	0.132 ± 0.02	–
NS(=O)(=O)c1ccc(Nc2nc(OCC3CCCC3)c3nc[nH]c3n2)cc1 [NU6166, 4-[6-Cyclopentylmethoxy-9H-purin-2-ylamino)-benzenesulfonamide]	0.014 ± 0.003 µM	0.007 ± 0.001	–
C[C@H](O)CNS(=O)(=O)c1ccc(Nc2nc(OCC3CCCCC3)c3nc[nH]c3n2)cc1 [NU6167, 4-(6-Cyclohexylmethoxy-9H-purin-2-ylamino)-N-(2-hydroxypropyl)benzenesulfonamide]	0.009 ± 0.0002 µM	0.006 ± 0.001	–
Cn1cnc2c(NCc3ccccc3)nc(NCCO)nc21 [Olomoucine, 2-(2-hydroxyethylamino)-6-benzylamino-9-methyl-purine]	–	–	activity against CDK4 [5]: neither has been found to be active; activity against CDK6 [6]: neither has been found to be active; inhibitory activity in relation to many common kinases other than CDK's [7]: total lack of inhibitory activity
CC[C@H](CO)Nc1nc(NCc2ccccc2)c2ncn(C(C)C)c2n1 [roscovitine, 6-(benzylamino)-2(R)-[{1-(hydroxy-methyl)propyl}amino]-9-isopropylpurine]	–	–	activity against CDK4 [5]: neither has been found to be active; activity against CDK6 [6]: neither has been found to be active
